Our source for the inhibition, Tm and Activity values is ChEMBL document CHEMBL6120979, “Cell penetrable peptide nucleic acids targeting PDZK1IP1 with anti-inflammatory potential in human keratinocytes” (Bioorg Med Chem Lett, 2025).

SMILES strings stand for the structures. Calls of active or inactive are those of the source. The rule behind the calls is not given here.

Assay [1] deals with Keratinocyte. Nature of the assay: Inhibition of PDZK1IP1 mRNA expression in human keratinocytes at 1 uM incubated for 24 hrs by RT-qPCR analysis. It is filed as functional, cell-based. (In qPCR the cycle at which signal appears reflects the starting amount.)
Assay [2] relates to Keratinocyte. Nature of the assay: Inhibition of PDZK1IP1 mRNA expression in human keratinocytes at 0.01 to 1 uM incubated for 24 hrs by RT-qPCR analysis. It is filed as functional, cell-based. The note with it: dose 0.01-1 µM.
Assay [3] has as its system RNA. Nature of the assay: Binding affinity to complementary RNA (unknown origin) in sodium phosphate buffer assessed as melting temperature of PNA-RNA duplex. It is filed as nucleic-acid assay.
Assay [4] concerns RNA. Nature of the assay: Binding affinity to complementary RNA (unknown origin) with mismatch bases in sodium phosphate buffer. It is filed as nucleic-acid assay.
Assay [5] concerns Keratinocyte. Nature of the assay: Inhibition of PDZK1IP1 mRNA expression in human keratinocytes incubated for 24 hrs by RT-qPCR analysis. It is filed as functional, cell-based.
The test system of assay [6] is Keratinocyte. Nature of the assay: Antiinflammatory activity in human keratinocytes assessed as downregulation of PTGS2 gene expression preincubated with compound for 24 hrs followed by IFN-gamma addition and measured after 24 hrs by RT-qPCR analysis. It is filed as functional, cell-based. Conditions: dose 0.01-1 µM, time 48.0 hrs.
For assay [7], the system named is Keratinocyte. Nature of the assay: Antiinflammatory activity in human keratinocytes assessed as downregulation of PDZK1IP1 gene expression preincubated with compound for 24 hrs followed by IFN-gamma addition and measured after 24 hrs by RT-qPCR analysis. Conditions: dose 0.01-1 µM, time 48.0 hrs. It is filed as functional, cell-based.
In assay [8] the test system is Keratinocyte. Nature of the assay: Antiinflammatory activity in human keratinocytes assessed as downregulation of IL6 gene expression preincubated with compound for 24 hrs followed by IFN-gamma addition and measured after 24 hrs by RT-qPCR analysis. It is filed as functional, cell-based. Conditions: dose 0.01-1 µM, time 48.0 hrs.

For orientation: Tm means the temperature at the midpoint of the melting transition. For the compound `Cc1cn(CC(=O)N(CCNC(=O)CN(CCNC(=O)CN(CCNC(=O)CN(CCNC(=O)CN(CCNC(=O)CN(CCNC(=O)CN(CCNC(=O)CN(CCNC(=O)CN(CCNC(=O)CN(CCNC(=O)CN(CCNC(=O)CN(CCNC(=O)CN(CCNC(=O)CN(CCN)C(=O)Cn2cc(C)c(=O)[nH]c2=O)C(=O)Cn2cnc3c(=O)[nH]c(NCCCCCCN)nc32)C(=O)Cn2cc(C)c(=O)[nH]c2=O)C(=O)Cn2cnc3c(=O)[nH]c(NCCCCCCN)nc32)C(=O)Cn2ccc(N)nc2=O)C(=O)Cn2cnc3c(N)nc(NCCCCCN)nc32)C(=O)Cn2cnc3c(=O)[nH]c(N)nc32)C(=O)Cn2cnc3c(=O)[nH]c(NCCCCCCN)nc32)C(=O)Cn2ccc(N)nc2=O)C(=O)Cn2cc(C)c(=O)[nH]c2=O)C(=O)Cn2ccc(N)nc2=O)C(=O)Cn2cc3cc(COCCN)[nH]c3nc2=O)C(=O)Cn2ccc(N)nc2=O)CC(=O)O)c(=O)[nH]c1=O`, the inhibition entry in assay [1] was “Active”. For the same compound, in assay [2], the inhibition result is “Mild_effect; Mild Dose Dependent Effect Observed”. In addition, in assay [3], the Tm came to 75 °C. For the same compound, in assay [4], the result was inactive.

Regarding `Cc1cn(CC(=O)N(CCN)CC(=O)NCCN(CC(=O)NCCN(CC(=O)NCCN(CC(=O)NCCN(CC(=O)NCCN(CC(=O)NCCN(CC(=O)NCCN(CC(=O)NCCN(CC(=O)NCCN(CC(=O)NCCN(CC(=O)NCCN(CC(=O)NCCN(CC(=O)NCCN(CC(=O)NCCN(CC(=O)NCCN(CC(=O)NCCN(CC(=O)NCCN(CC(=O)NCCN(CC(=O)NCCN(CC(=O)O)C(=O)Cn2cnc3c(=O)[nH]c(NCCCCCCN)nc32)C(=O)Cn2ccc3c(=O)[nH]c(N)nc32)C(=O)Cn2cnc3c(=O)[nH]c(N)nc32)C(=O)Cn2cnc3c(=O)[nH]c(NCCCCCCN)nc32)C(=O)Cn2cc(C)c(=O)[nH]c2=O)C(=O)Cn2ccc(N)nc2=O)C(=O)Cn2ccc(N)nc2=O)C(=O)Cn2ccc(N)nc2=O)C(=O)Cn2cc(C)c(=O)[nH]c2=O)C(=O)Cn2cc3cc(COCCN)[nH]c3nc2=O)C(=O)Cn2cnc3c(=O)[nH]c(N)nc32)C(=O)Cn2cnc3c(=O)[nH]c(N)nc32)C(=O)Cn2cnc3c(N)nc(NCCCCCN)nc32)C(=O)Cn2ccc(N)nc2=O)C(=O)Cn2cnc3c(=O)[nH]c(N)nc32)C(=O)Cn2cc(C)c(=O)[nH]c2=O)C(=O)Cn2cnc3c(=O)[nH]c(N)nc32)C(=O)Cn2cc(C)c(=O)[nH]c2=O)C(=O)Cn2cnc3c(=O)[nH]c(N)nc32)c(=O)[nH]c1=O`, the inhibition entry in assay [5] is “Dose-dependent-effect”. Moreover, the Tm in assay [3] was > 90 °C. In assay [4], the outcome was inactive.

`Cc1cn(CC(=O)N(CCNC(=O)CN(CCNC(=O)CN(CCNC(=O)CN(CCNC(=O)CN(CCNC(=O)CN(CCNC(=O)CN(CCN)C(=O)Cn2cnc3c(=O)[nH]c(N)nc32)C(=O)Cn2cnc3c(=O)[nH]c(NCCCCCCN)nc32)C(=O)Cn2ccc(N)nc2=O)C(=O)Cn2cc(C)c(=O)[nH]c2=O)C(=O)Cn2cc3cc(COCCN)[nH]c3nc2=O)C(=O)Cn2ccc(N)nc2=O)CC(=O)NCCN(CC(=O)NCCN(CC(=O)NCCN(CC(=O)NCCN(CC(=O)NCCN(CC(=O)NCCN(CC(=O)NCCN(CC(=O)O)C(=O)Cn2cnc3c(N)nc(NCCCCCN)nc32)C(=O)Cn2ccc(N)nc2=O)C(=O)Cn2cnc3c(=O)[nH]c(N)nc32)C(=O)Cn2cnc3c(=O)[nH]c(NCCCCCCN)nc32)C(=O)Cn2cc(C)c(=O)[nH]c2=O)C(=O)Cn2cc3cc(COCCN)[nH]c3nc2=O)C(=O)Cn2ccc(N)nc2=O)c(=O)[nH]c1=O`: the inhibition entry in assay [1] was “Active”. In addition, the inhibition result in assay [2] is recorded as “Mild_effect; Mild Dose Dependent Effect Observed”. In assay [3], the Tm is 84 °C. Moreover, the outcome in assay [4] was inactive.

In the case of `Cc1cn(CC(=O)N(CCN)CC(=O)NCCN(CC(=O)NCCN(CC(=O)NCCN(CC(=O)NCCN(CC(=O)NCCN(CC(=O)NCCN(CC(=O)NCCN(CC(=O)NCCN(CC(=O)NCCN(CC(=O)NCCN(CC(=O)NCCN(CC(=O)NCCN(CC(=O)NCCN(CC(=O)O)C(=O)Cn2cnc3c(=O)[nH]c(N)nc32)C(=O)Cn2cnc3c(=O)[nH]c(NCCCCCCN)nc32)C(=O)Cn2cc(C)c(=O)[nH]c2=O)C(=O)Cn2ccc(N)nc2=O)C(=O)Cn2ccc(N)nc2=O)C(=O)Cn2cc3cc(COCCN)[nH]c3nc2=O)C(=O)Cn2cc(C)c(=O)[nH]c2=O)C(=O)Cn2ccc(N)nc2=O)C(=O)Cn2cnc3c(=O)[nH]c(NCCCCCCN)nc32)C(=O)Cn2cnc3c(=O)[nH]c(N)nc32)C(=O)Cn2cnc3c(N)nc(NCCCCCN)nc32)C(=O)Cn2ccc(N)nc2=O)C(=O)Cn2cnc3c(=O)[nH]c(NCCCCCCN)nc32)c(=O)[nH]c1=O`, the inhibition result in assay [1] is “Active”. In addition, the Activity result in assay [6], in assay [7] and in assay [8] was “Dose-dependent-effect” throughout. Also, in assay [5], the inhibition entry is “Dose-dependent-effect”. In addition, in assay [3], the Tm was 80 °C. Moreover, in assay [4], the result was inactive.

Regarding `Cc1cn(CC(=O)N(CCNC(=O)CN(CCNC(=O)CN(CCNC(=O)CN(CCNC(=O)CN(CCNC(=O)CN(CCNC(=O)CN(CCNC(=O)CN(CCNC(=O)CN(CCN)C(=O)Cn2cnc3c(N)nc(NCCCCCN)nc32)C(=O)Cn2ccc(N)nc2=O)C(=O)Cn2cnc3c(=O)[nH]c(N)nc32)C(=O)Cn2cnc3c(=O)[nH]c(N)nc32)C(=O)Cn2ccc(N)nc2=O)C(=O)Cn2cc(C)c(=O)[nH]c2=O)C(=O)Cn2cc3cc(COCCN)[nH]c3nc2=O)C(=O)Cn2ccc(N)nc2=O)CC(=O)NCCN(CC(=O)NCCN(CC(=O)NCCN(CC(=O)NCCN(CC(=O)NCCN(CC(=O)NCCN(CC(=O)NCCN(CC(=O)NCCN(CC(=O)NCCN(CC(=O)NCCN(CC(=O)NCCN(CC(=O)O)C(=O)Cn2cnc3c(=O)[nH]c(N)nc32)C(=O)Cn2cnc3c(N)nc(NCCCCCN)nc32)C(=O)Cn2ccc(N)nc2=O)C(=O)Cn2ccc(N)nc2=O)C(=O)Cn2cnc3c(N)nc(NCCCCCN)nc32)C(=O)Cn2ccc(N)nc2=O)C(=O)Cn2cnc3c(=O)[nH]c(N)nc32)C(=O)Cn2cnc3c(=O)[nH]c(NCCCCCCN)nc32)C(=O)Cn2cc(C)c(=O)[nH]c2=O)C(=O)Cn2ccc(N)nc2=O)C(=O)Cn2ccc(N)nc2=O)c(=O)[nH]c1=O`, the inhibition entry in assay [5] is “Dose-dependent-effect”. Besides, in assay [3], the midpoint of thermal melting (Tm) was > 90 °C. The result in assay [4] was inactive.

On to `Cc1cn(CC(=O)N(CCNC(=O)CN(CCNC(=O)CN(CCNC(=O)CN(CCNC(=O)CN(CCNC(=O)CN(CCNC(=O)CN(CCNC(=O)CN(CCNC(=O)CN(CCNC(=O)CN(CCNC(=O)CN(CCNC(=O)CN(CCNC(=O)CN(CCN)C(=O)Cn2cnc3c(N)nc(NCCCCCN)nc32)C(=O)Cn2ccc(N)nc2=O)C(=O)Cn2cc(C)c(=O)[nH]c2=O)C(=O)Cn2ccc(N)nc2=O)C(=O)Cn2cnc3c(N)nc(NCCCCCN)nc32)C(=O)Cn2ccc(N)nc2=O)C(=O)Cn2cnc3c(=O)[nH]c(NCCCCCCN)nc32)C(=O)Cn2cnc3c(=O)[nH]c(N)nc32)C(=O)Cn2cc3cc(COCCN)[nH]c3nc2=O)C(=O)Cn2cc(C)c(=O)[nH]c2=O)C(=O)Cn2ccc(N)nc2=O)C(=O)Cn2cc3cc(COCCN)[nH]c3nc2=O)CC(=O)NCCN(CC(=O)O)C(=O)Cn2ccc(N)nc2=O)c(=O)[nH]c1=O`, for which, in assay [1], the inhibition entry was “Active”. Moreover, the inhibition result in assay [2] is on record as “Mild_effect; Mild Dose Dependent Effect Observed”. For the same compound, the Tm in assay [3] amounted to 74.1 °C. In addition, the outcome in assay [4] was inactive.
